Test systems include HCC 2998; MDA-N; OVCAR-3; HCT-15; BT-549; SW-620; NCI/ADR-RES; SK-MEL-2; SF-539; UO-31; MCF7; UACC-62; OVCAR-4; HL-60; K562; KM12; SNB-75; M14; NCI-H522.
Common to all, as to experiment: growth of human tumour cells (NCI), 48 h

Here are results for five compounds from ChEMBL document CHEMBL1201862, “PubChem BioAssay data set” (2004).

The structures appear in SMILES notation.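 Growth conditions: 96-well plates. Treatment: test compound, 48 hours, 5 concentrations. Analysis: linear interpolation between bracketing concentrations; unreached endpoints set to highest concentration. GI50 = concentration required for 50% inhibition of growth.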 Calls of active or inactive are those of the source. Rule as the data show it: active = GI50 up to about 1.1 µM and inactive = higher. Some results are limits rather than exact numbers.

Take `C/C=C1\CNC1C(=O)O` (stereo unspecified): the GI50 was > 100 µM (inactive) in the test on HCC 2998; > 100 µM (inactive) with MDA-N; > 100 µM (inactive) in the test on OVCAR-3; more than 100 µM in the test on HCT-15; > 100 µM (inactive) in the test on BT-549; > 100 µM (inactive) in the test on SW-620. For the same compound, the GI50 in the test on NCI/ADR-RES, with SK-MEL-2, in the test on SF-539, in the test with UO-31, in the test with MCF7 and in the test with UACC-62 was > 100 µM (inactive) throughout. For the same compound, the GI50 with OVCAR-4, in the test on HL-60 and with K562 was > 100 µM (inactive) in each case.
In the case of `O=C1CN2C(c3ccccc3)=NN(c3ccc([N+](=O)[O-])cc3)C2(c2ccccc2)c2cc(Cl)ccc2N1CC1CC1` (stereo unspecified), the GI50 in the test on HCC 2998 was > 100 µM (inactive); in the test with KM12, > 100 µM (inactive); with OVCAR-3 it was > 100 µM (inactive); in the test with SNB-75, > 100 µM (inactive); in the test with HCT-15 it was more than 100 µM; with BT-549, > 100 µM (inactive). In addition, the GI50 with SW-620, in the test with NCI/ADR-RES, with M14, in the test with SF-539, with UO-31 and in the test on MCF7 was > 100 µM (inactive) each time. For the same compound, the GI50 with UACC-62 was > 100 µM (inactive); in the test with OVCAR-4, > 100 µM (inactive); in the test on HL-60 it was < 0.01 µM (active); in the test with K562, > 100 µM (inactive); in the test with NCI-H522, > 100 µM (inactive).
As to `CCC[C@H]1O[C@@H]2CC(=O)O[C@@H]2C2=C1C(=O)C=CC2=O`, the GI50 was > 43.1 µM (inactive) with HCC 2998; 23.6 µM (inactive) in the test with KM12; 14.1 µM (inactive) in the test on OVCAR-3; 17 µM (inactive) with SNB-75; 15.3 µM in the test on HCT-15; 11.2 µM (inactive) in the test with SW-620. In addition, the GI50 was 18.7 µM (inactive) with M14; 20.3 µM (inactive) in the test on SK-MEL-2; 19.4 µM (inactive) with SF-539; 18.5 µM (inactive) in the test with UO-31; 17.9 µM (inactive) with UACC-62; 16.3 µM (inactive) with OVCAR-4. Further, the GI50 is 5.7 µM (inactive) in the test on HL-60, 5.09 µM (inactive) in the test with K562 and 2.2 µM (inactive) in the test on NCI-H522.
Take `O=C1Nc2c(Cl)cc(Cl)cc2/C1=N/N=C/c1ccco1`: the GI50 with HCC 2998 is 37.3 µM (inactive); in the test on MDA-N, 18.9 µM (inactive); in the test with KM12, 25.4 µM (inactive); in the test with OVCAR-3 it was 24.7 µM (inactive); in the test with SNB-75, 10.5 µM (inactive); in the test on HCT-15, 28.8 µM. Moreover, the GI50 is 22.2 µM (inactive) with BT-549; 37 µM (inactive) in the test on SW-620; 21.4 µM (inactive) in the test with NCI/ADR-RES; 34.7 µM (inactive) with M14; 24.4 µM (inactive) with SK-MEL-2; 29.1 µM (inactive) with SF-539. In addition, the GI50 with UO-31 was 20.5 µM (inactive); in the test with MCF7 it was 20.2 µM (inactive); in the test on UACC-62, 21.5 µM (inactive); with OVCAR-4 it was 49.3 µM (inactive); with HL-60, 29.7 µM (inactive); in the test on K562, 31.4 µM (inactive).
For `Cc1sc2nc3n(c(=O)c2c1C)N=CN(c1ccc(Cl)cc1)C3`, the GI50 in the test with HCC 2998 was > 100 µM (inactive); in the test on MDA-N, > 100 µM (inactive); in the test on KM12, > 100 µM (inactive); with OVCAR-3 it was > 100 µM (inactive); in the test on SNB-75, > 100 µM (inactive); in the test with HCT-15, more than 100 µM. The GI50 in the test on BT-549, with SW-620, in the test on NCI/ADR-RES, in the test with M14, in the test on SK-MEL-2 and in the test on UO-31 was > 100 µM (inactive) each time. Further, the GI50 was > 100 µM (inactive) in the test on UACC-62, > 100 µM (inactive) with OVCAR-4, > 100 µM (inactive) with K562 and 58.7 µM (inactive) in the test with NCI-H522.
